Data reported in patent US20100298141A1, “SUBSTITUTED PYRIDINE N-OXIDE HERBICIDES” (E. I. DU PONT DE NEMOURS AND COMPANY, priority 2007, published 2010).

Assays:
downy brome = experiment: Test C pre-/postemergence test; format: in vivo, Bromus tectorum; settings: for Plant response rating, Bromegrass, Downy: 31 g ai/ha, scale 0 to 100 (0 no effect, 100 complete control)
Outline: (§1)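 Test chemicals were formulated with surfactant in a non-phytotoxic solvent and sprayed both on freshly planted seeds (preemergence) and on 1- to 4-leaf plants of 2–18 cm (postemergence). Flooded-paddy pots received compound directly into 3 cm of standing water, maintained for the test.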

johnsongrass = experiment: Test C pre-/postemergence test; format: in vivo, Sorghum halepense
Outline: as §1

catchweed bedstraw = experiment: Test C pre-/postemergence test; format: in vivo, Galium aparine; settings: for Plant response rating, Galium: 31 g ai/ha, scale 0 to 100 (0 no effect, 100 complete control)
Outline: as §1

corn = experiment: Test A pre-/postemergence greenhouse test; format: in vivo, Zea mays; settings: for Corn plant response rating: 0 to 100 scale; for Plant response rating, Corn: 0 to 100 scale where 0 is no effect and 100 is complete control
Outline: (§2)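 Herbicidal effect is a visual injury score given about ten days post-treatment by comparison with untreated controls. Preemergence plots received a directed spray onto sown loam–sand soil; postemergence plants, at the one- to two-leaf stage and 2–10 cm tall, were sprayed at the same time.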

crabgrass = experiment: Test C pre-/postemergence test; format: in vivo, Digitaria sanguinalis; settings: for Plant response rating, Crabgrass, Large: 31 g ai/ha, scale 0 to 100 (0 no effect, 100 complete control)
Outline: as §1

Surinam grass = experiment: Test C pre-/postemergence test; format: in vivo, Brachiaria decumbens; settings: for Plant response rating, Surinam Grass: 31 g ai/ha, scale 0 to 100 (0 no effect, 100 complete control)
Outline: as §1

wheat = experiment: Test A pre-/postemergence greenhouse test; format: in vivo, Triticum aestivum; settings: for Wheat plant response rating: 0 to 100 scale; for Plant response rating, Wheat: 0 to 100 scale where 0 is no effect and 100 is complete control
Outline: as §2

giant foxtail [1] = experiment: Test A pre-/postemergence greenhouse test; format: in vivo, Setaria faberi; settings: for Foxtail, Giant plant response rating: 0 to 100 scale; for Plant response rating, Foxtail, Giant: 0 to 100 scale where 0 is no effect and 100 is complete control
Outline: as §2

soybean = experiment: Test C pre-/postemergence test; format: in vivo, Glycine max; settings: for Plant response rating, Soybean: 31 g ai/ha, scale 0 to 100 (0 no effect, 100 complete control)
Outline: as §1

pigweed = experiment: Test C pre-/postemergence test; format: in vivo, Amaranthus retroflexus; settings: for Plant response rating, Pigweed: 31 g ai/ha, scale 0 to 100 (0 no effect, 100 complete control)
Outline: as §1

velvetleaf = experiment: Test A pre-/postemergence greenhouse test; format: in vivo, Abutilon theophrasti; settings: for Velvetleaf plant response rating: 0 to 100 scale; for Plant response rating, Velvetleaf: 0 to 100 scale where 0 is no effect and 100 is complete control
Outline: as §2

giant foxtail [2] = experiment: Test C pre-/postemergence test; format: in vivo, Setaria faberii; settings: for Plant response rating, Foxtail, Giant: 31 g ai/ha, scale 0 to 100 (0 no effect, 100 complete control)
Outline: as §1

morningglory = experiment: Test C pre-/postemergence test; format: in vivo, Ipomoea coccinea
Outline: as §1

lambsquarters = experiment: Test C pre-/postemergence test; format: in vivo, Chenopodium album; settings: for Plant response rating, Lambsquarters: 31 g ai/ha, scale 0 to 100 (0 no effect, 100 complete control)
Outline: as §1

bermudagrass = experiment: Test C pre-/postemergence test; format: in vivo, Cynodon dactylon; settings: for Plant response rating, Bermudagrass: 31 g ai/ha
Outline: as §1

barnyardgrass = experiment: Test C flooded paddy test; format: in vivo, Echinochloa crus-galli; settings: Flood
Outline: (§3)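 Compound was added to standing water 3 cm above soil, flood maintained, and plants held in a greenhouse before visual scoring against controls at 13 to 15 days.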

rice = experiment: Test C flooded paddy test; format: in vivo, Oryza sativa; settings: Flood
Outline: as §3

[3] = 62 g ai/ha, Preemergence, scale 0 to 100
[4] = 125 g ai/ha, preemergence, scale 0 (no effect) to 100 (complete control)
[5] = preemergence, 250 g ai/ha, scale 0 (no effect) to 100 (complete control)
[6] = Preemergence, 31 g ai/ha, scale 0 to 100 (0 no effect, 100 complete control)
[7] = Postemergence, 125 g ai/ha, 0 is no effect, 100 is complete control
[8] = Postemergence, 500 g ai/ha, 0 is no effect, 100 is complete control
[9] = Preemergence, 125 g ai/ha, 0 no effect, 100 complete control
[10] = 62 g ai/ha, Preemergence, scale 0 to 100 (0 no effect, 100 complete control)
[11] = Preemergence, scale 0 to 100 (0 no effect, 100 complete control)
[12] = 31 g ai/ha, scale 0 to 100 (0 no effect, 100 complete control)
[13] = 62 g ai/ha, scale 0 to 100, 0 no effect, 100 complete control, 13 to 15 days
[14] = 125 g ai/ha, scale 0 to 100, 0 no effect, 100 complete control, 13 to 15 days
[15] = 250 g ai/ha, scale 0 to 100, 0 no effect, 100 complete control, 13 to 15 days
[16] = preemergence, 125 g ai/ha, scale 0 (no effect) to 100 (complete control)
[17] = 250 g ai/ha, scale 0 to 100 (0 no effect, 100 complete control)

`Cn1nc(C(F)(F)F)c(C[S+]([O-])c2cc(F)cc[n+]2[O-])c1Cl` (racemic) [Compound 42] was tested, and the “Bromegrass, Downy plant response rating” value (downy brome; [3]) was 15, the “Bromegrass, Downy plant response rating” value (downy brome; [4]) was 45 and the “Plant response rating, Bromegrass, Downy” value (downy brome; Preemergence) was 10. The “Bromegrass, Downy plant response rating” value (downy brome; [5]) was 70, the “Johnsongrass plant response rating” value (johnsongrass; [3]) was 98 and the “Johnsongrass plant response rating” value (johnsongrass; [4]) was 100. For the same molecule, the “Plant response rating, Johnsongrass” value (johnsongrass; [6]) was 55, the “Johnsongrass plant response rating” value (johnsongrass; [5]) was 100 and the “Galium plant response rating” value (catchweed bedstraw; [3]) was 50. For the same molecule, the “Galium plant response rating” value (catchweed bedstraw; [4]) was 100, the “Plant response rating, Galium” value (catchweed bedstraw; Preemergence) was 0 and the “Galium plant response rating” value (catchweed bedstraw; [5]) was 100. The “Corn plant response rating” value (corn; [7]) was 0, the “Corn plant response rating” value (corn; [8]) was 70 and the “Corn plant response rating” value (corn; [9]) was 0. For the same molecule, the “Plant response rating, Corn” value (corn; Preemergence, 500 g ai/ha) was 0, the “Crabgrass, Large plant response rating” value (crabgrass; [3]) was 100 and the “Crabgrass, Large plant response rating” value (crabgrass; [4]) was 100. For the same molecule, the “Plant response rating, Crabgrass, Large” value (crabgrass; Preemergence) was 95, the “Crabgrass, Large plant response rating” value (crabgrass; [5]) was 100 and the “Surinam Grass plant response rating” value (Surinam grass; [3]) was 80. The “Surinam Grass plant response rating” value (Surinam grass; [4]) was 85, the “Plant response rating, Surinam Grass” value (Surinam grass; Preemergence) was 60 and the “Surinam Grass plant response rating” value (Surinam grass; [5]) was 100. For the same molecule, the “Wheat plant response rating” value (wheat; [7]) was 40, the “Wheat plant response rating” value (wheat; [8]) was 50 and the “Wheat plant response rating” value (wheat; [9]) was 20. The “Plant response rating, Wheat” value (wheat; Preemergence, 500 g ai/ha) was 60, the “Foxtail, Giant plant response rating” value (giant foxtail [1]; [7]) was 80 and the “Foxtail, Giant plant response rating” value (giant foxtail [1]; [8]) was 90. For the same molecule, the “Foxtail, Giant plant response rating” value (giant foxtail [1]; [9]) was 100, the “Plant response rating, Foxtail, Giant” value (giant foxtail [1]; Preemergence, 500 g ai/ha) was 100 and the “Soybean plant response rating” value (soybean; [3]) was 0. For the same molecule, the “Soybean plant response rating” value (soybean; [4]) was 40, the “Plant response rating, Soybean” value (soybean; Preemergence) was 0 and the “Soybean plant response rating” value (soybean; [5]) was 40. For the same molecule, the “Pigweed plant response rating” value (pigweed; [3]) was 100, the “Pigweed plant response rating” value (pigweed; [4]) was 100 and the “Plant response rating, Pigweed” value (pigweed; Preemergence) was 100. The “Pigweed plant response rating” value (pigweed; [5]) was 100, the “Velvetleaf plant response rating” value (velvetleaf; [7]) was 0 and the “Velvetleaf plant response rating” value (velvetleaf; [8]) was 60. For the same molecule, the “Velvetleaf plant response rating” value (velvetleaf; [9]) was 10, the “Plant response rating, Velvetleaf” value (velvetleaf; Preemergence, 500 g ai/ha) was 80 and the “Foxtail, Giant plant response rating” value (giant foxtail [2]; [3]) was 100. For the same molecule, the “Foxtail, Giant plant response rating” value (giant foxtail [2]; [4]) was 100, the “Plant response rating, Foxtail, Giant” value (giant foxtail [2]; Preemergence) was 98 and the “Foxtail, Giant plant response rating” value (giant foxtail [2]; [5]) was 100. The “Morningglory plant response rating” value (morningglory; [3]) was 50, the “Morningglory plant response rating” value (morningglory; [4]) was 50 and the “Plant response rating, Morningglory” value (morningglory; [6]) was 0. For the same molecule, the “Morningglory plant response rating” value (morningglory; [5]) was 90, the “Lambsquarters plant response rating” value (lambsquarters; [3]) was 100 and the “Lambsquarters plant response rating” value (lambsquarters; [4]) was 100. For the same molecule, the “Plant response rating, Lambsquarters” value (lambsquarters; Preemergence) was 80, the “Lambsquarters plant response rating” value (lambsquarters; [5]) was 100 and the “Bermudagrass plant response rating” value (bermudagrass; [10]) was 100. For the same molecule, the “Bermudagrass plant response rating” value (bermudagrass; [4]) was 100, the “Plant response rating, Bermudagrass” value (bermudagrass; [11]) was 70 and the “Bermudagrass plant response rating” value (bermudagrass; [5]) was 100. The “Plant response rating, Barnyardgrass” value (barnyardgrass; [12]) was 0, the “Plant response rating, Barnyardgrass” value (barnyardgrass; [13]) was 0 and the “Plant response rating, Barnyardgrass” value (barnyardgrass; [14]) was 40. The “Plant response rating, Barnyardgrass” value (barnyardgrass; [15]) was 55, the “Plant response rating, Rice” value (rice; [12]) was 0 and the “Plant response rating, Rice” value (rice; [13]) was 15. For the same molecule, the “Plant response rating, Rice” value (rice; [14]) was 25 and the “Plant response rating, Rice” value (rice; [15]) was 70.
In the case of `CC(c1c(C(F)(F)F)nn(C)c1OC(F)F)S(=O)(=O)c1cc(C(C)(C)C)cc[n+]1[O-]` (racemic) [Compound 26], the “Bromegrass, Downy plant response rating” value (downy brome; [3]) is reported as 45, the “Plant response rating, Bromegrass, Downy” value (downy brome; Preemergence) is reported as 0 and the “Plant response rating (0 to 100), Bromegrass, Downy” value (downy brome; Preemergence, 250 g ai/ha) is reported as 60. For the same molecule, the “Bromegrass, Downy plant response rating” value (downy brome; [16]) was 45, the “Johnsongrass plant response rating” value (johnsongrass; [3]) was 85 and the “Plant response rating (0 to 100), Johnsongrass” value (johnsongrass; Preemergence, 250 g ai/ha) was 100. For the same molecule, the “Galium plant response rating” value (catchweed bedstraw; [3]) was 85, the “Plant response rating, Galium” value (catchweed bedstraw; Preemergence) was 50 and the “Plant response rating (0 to 100), Galium” value (catchweed bedstraw; Preemergence, 250 g ai/ha) was 100. For the same molecule, the “Corn plant response rating” value (corn; [7]) was 0, the “Corn plant response rating” value (corn; [8]) was 0 and the “Corn plant response rating” value (corn; [9]) was 20. The “Plant response rating, Corn” value (corn; Preemergence, 500 g ai/ha) was 50, the “Crabgrass, Large plant response rating” value (crabgrass; [3]) was 100 and the “Plant response rating, Crabgrass, Large” value (crabgrass; Preemergence) was 100. The “Plant response rating (0 to 100), Crabgrass, Large” value (crabgrass; Preemergence, 250 g ai/ha) was 100, the “Surinam Grass plant response rating” value (Surinam grass; [3]) was 40 and the “Plant response rating, Surinam Grass” value (Surinam grass; Preemergence) was 10. The “Wheat plant response rating” value (wheat; [7]) was 10, the “Wheat plant response rating” value (wheat; [8]) was 40 and the “Wheat plant response rating” value (wheat; [9]) was 20. For the same molecule, the “Plant response rating, Wheat” value (wheat; Preemergence, 500 g ai/ha) was 70, the “Foxtail, Giant plant response rating” value (giant foxtail [1]; [7]) was 0 and the “Foxtail, Giant plant response rating” value (giant foxtail [1]; [8]) was 30. For the same molecule, the “Foxtail, Giant plant response rating” value (giant foxtail [1]; [9]) was 90, the “Plant response rating, Foxtail, Giant” value (giant foxtail [1]; Preemergence, 500 g ai/ha) was 100 and the “Soybean plant response rating” value (soybean; [3]) was 0. For the same molecule, the “Plant response rating, Soybean” value (soybean; Preemergence) was 0, the “Pigweed plant response rating” value (pigweed; [3]) was 100 and the “Plant response rating, Pigweed” value (pigweed; Preemergence) was 85. The “Velvetleaf plant response rating” value (velvetleaf; [7]) was 0, the “Velvetleaf plant response rating” value (velvetleaf; [8]) was 0 and the “Velvetleaf plant response rating” value (velvetleaf; [9]) was 0. For the same molecule, the “Plant response rating, Velvetleaf” value (velvetleaf; Preemergence, 500 g ai/ha) was 70, the “Foxtail, Giant plant response rating” value (giant foxtail [2]; [3]) was 70 and the “Plant response rating, Foxtail, Giant” value (giant foxtail [2]; Preemergence) was 40. The “Plant response rating (0 to 100), Foxtail, Giant” value (giant foxtail [2]; Preemergence, 250 g ai/ha) was 75, the “Morningglory plant response rating” value (morningglory; [3]) was 80 and the “Lambsquarters plant response rating” value (lambsquarters; [3]) was 40. The “Plant response rating, Lambsquarters” value (lambsquarters; Preemergence) was 0, the “Bermudagrass plant response rating” value (bermudagrass; [10]) was 100 and the “Plant response rating, Bermudagrass” value (bermudagrass; [11]) was 80. For the same molecule, the “Plant response rating (0 to 100), Bermudagrass” value (bermudagrass; Preemergence, 250 g ai/ha) was 100, the “Bermudagrass plant response rating” value (bermudagrass; [16]) was 100 and the “Plant response rating, Barnyardgrass” value (barnyardgrass; [12]) was 0. For the same molecule, the “Plant response rating, Barnyardgrass” value (barnyardgrass; [13]) was 0, the “Plant response rating, Barnyardgrass” value (barnyardgrass; [14]) was 20 and the “Plant response rating, Barnyardgrass” value (barnyardgrass; [17]) was 80. For the same molecule, the “Plant response rating, Rice” value (rice; [12]) was 0, the “Plant response rating, Rice” value (rice; [13]) was 0 and the “Plant response rating, Rice” value (rice; [14]) was 0. The “Plant response rating, Rice” value (rice; [17]) was 80.
